Here are results for 29 molecules from patent US20070287699A1, “ANTIVIRAL AGENTS” (ViroBay, Inc., priority 2006, published 2007).

One assay concerns HCV replicon RNA replication in human Huh7 hepatoma cells. As to the kind of experiment: HCV replicon assay (activity levels from either or both of HCV replicon assay 1, Huh7/Clone A RT-qPCR, and assay 2, Huh7 ET luc-ubi-neo/ET). It counts as cell-based, Hepatitis C virus (HCV). The conditions noted are these: Hepatitis C virus, Huh-7, either or both HCV replicon assays: Huh7/Clone A, 48 hours, 72 hours, Luc activity or RT-PCR, read-out: inhibit HCV replication at IC50 levels or estimated IC50 levels. In a few lines:
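Huh7/Clone A subgenomic replicon cells treated 48 h at 37° C. with 7 serial dilutions in triplicate (0.5% DMSO final). Replicon RNA measured by TaqMan RT-qPCR on the neo gene, normalized to RiboGreen total RNA; untreated cells set as 100% for IC50.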
As usually defined, the IC50 is the concentration that gives 50% inhibition. Take `CN1CCN(c2cc3c(cc2F)c(=O)c(-c2noc(C(CC#N)c4ccccc4)n2)cn3Cc2ccc(Cl)cc2)CC1` (centres unmarked) [Compound 53, 3-{3-[1-(4-chloro-benzyl)-6-fluoro-7-(4-methyl-piperazin-1-yl)-4-oxo-1,4-dihydro-quinolin-3-yl]-[1,2,4]oxadiazol-5-yl}-3-phenyl-propionitrile]: the half-inhibitory concentration (IC50) is less than 10 µM.

In the case of `CC(C)(c1ccccc1)c1nc(-c2cn(Cc3ccc(C(F)(F)F)cc3)c3cc(N4CCOCC4)c(F)cc3c2=O)no1` [Compound 146, 6-fluoro-7-morpholino-3-(5-(2-phenylpropan-2-yl)-1,2,4-oxadiazol-3-yl)-1-(4-(trifluoromethyl)benzyl)quinolin-4(1H)-one], the IC50 is less than 0.5 µM.

Regarding `CN1CCN(c2cc3c(cc2F)c(=O)c(-c2noc(C(CCCC(=O)O)c4ccccc4)n2)cn3Cc2ccc(Cl)cc2)CC1` (centres unmarked) [Compound 81, 5-{3-[1-(4-chloro-benzyl)-6-fluoro-7-(4-methyl-piperazin-1-yl)-4-oxo-1,4-dihydro-quinolin-3-yl]-[1,2,4]oxadiazol-5-yl}-5-phenyl-pentanoic acid], the half-inhibitory concentration (IC50) was less than 10 µM.

As to `CN(C)c1cc2c(cc1F)c(=O)c(-c1noc(C(C)(C)c3ccccc3)n1)cn2Cc1ccc(C(F)(F)F)cc1` [Compound 152, 7-(dimethylamino)-6-fluoro-3-(5-(2-phenylpropan-2-yl)-1,2,4-oxadiazol-3-yl)-1-(4-(trifluoromethyl)benzyl)quinolin-4(1H)-one], the half-inhibitory concentration (IC50) is less than 0.5 µM.

With `CC(=O)N1CCN(c2cc3c(cc2F)c(=O)c(-c2noc(Cc4ccccc4)n2)cn3Cc2ccc(Cl)cc2)CC1` [Compound 27, 7-(4-acetyl-piperazin-1-yl)-3-(5-benzyl-[1,2,4]oxadiazol-3-yl)-1-(4-chloro-benzyl)-6-fluoro-1H-quinolin-4-one], the half-maximal inhibitory concentration (IC50) is less than 2 µM.

Consider `CN1CCN(c2cc3c(cc2F)c(=O)c(-c2noc(CC(C)(C)C)n2)cn3Cc2ccc(Cl)cc2)CC1` [Compound 21, 1-(4-chloro-benzyl)-3-[5-(2,2-dimethyl-propyl)-[1,2,4]oxadiazol-3-yl]-6-fluoro-7-(4-methyl-piperazin-1-yl)-1H-quinolin-4-one], for which the IC50 is greater than 10 µM.

For the molecule `O=C(O)Cc1ccc2c(c1)c(=O)c(-c1noc(Cc3ccccc3)n1)cn2Cc1ccc(C(F)(F)F)cc1F` [Compound 76, [3-(5-benzyl-[1,2,4]oxadiazol-3-yl)-1-(2-fluoro-4-trifluoromethyl-benzyl)-4-oxo-1,4-dihydro-quinolin-6-yl]-acetic acid], the 50% inhibitory concentration (IC50) was greater than 10 µM.

As to `COc1ccc2c(=O)c(-c3noc(Cc4ccccc4)n3)cn(Cc3ccc(C(F)(F)F)cc3)c2c1` [Compound 68, 3-(5-benzyl-oxadiazol-3-yl)-7-methoxy-1-(4-trifluoromethyl-benzyl)-1H-quinolin-4-one], the 50% inhibitory concentration (IC50) was greater than 10 µM.

Consider `CN1CCN(c2cc3c(cc2F)c(=O)c(-c2noc(CC4CCCC4)n2)cn3Cc2ccc(C(F)(F)F)cc2F)CC1` [Compound 17, 3-(5-cyclopentylmethyl-[1,2,4]oxadiazol-3-yl)-6-fluoro-1-(2-fluoro-4-trifluoromethyl-benzyl)-7-(4-methyl-piperazin-1-yl)-1H-quinolin-4-one], for which the IC50 is less than 2 µM.

`O=c1c(-c2noc(Cc3ccccc3)n2)cn(Cc2ccc(C(F)(F)F)cc2F)c2cc(-n3ccnc3)c(F)cc12` [Compound 56, 3-(5-benzyl-[1,2,4]oxadiazol-3-yl)-6-fluoro-1-(2-fluoro-4-trifluoromethyl-benzyl)-7-imidazol-1-yl-1H-quinolin-4-one]: the 50% inhibitory concentration (IC50) is less than 2 µM.

`CN1CCN(c2cc3c(cc2F)c(=O)c(-c2noc(Cc4cc(F)cc(F)c4)n2)cn3Cc2ccc(Cl)cc2)CC1` [Compound 46, 1-(4-chloro-benzyl)-3-[5-(3,5-difluoro-benzyl)-[1,2,4]oxadiazol-3-yl]-6-fluoro-7-(4-methyl-piperazin-1-yl)-1H-quinolin-4-one]: the IC50 is less than 10 µM.

Turning to `NCCNc1cc2c(cc1F)c(=O)c(-c1noc(Cc3ccccc3)n1)cn2Cc1ccc(C(F)(F)F)cc1` [Compound 75, 7-(2-amino-ethylamino)-3-(5-benzyl-[1,2,4]oxadiazol-3-yl)-6-fluoro-1-(4-trifluoromethyl-benzyl)-1H-quinolin-4-one], the half-maximal inhibitory concentration (IC50) is greater than 10 µM.

As for `COc1cc2c(=O)c(-c3noc(Cc4ccccc4)n3)cn(Cc3ccc(Cl)cc3)c2cc1OC` [Compound 1, 3-(5-Benzyl-[1,2,4]oxadiazol-3-yl)-1-(4-chloro-benzyl)-6,7-dimethoxy-1H-quinolin-4-one], the IC50 was greater than 10 µM.

Consider `CN1CCN(c2cc3c(cc2F)c(=O)c(-c2noc(Cc4ccc(F)cc4)n2)cn3Cc2ccc(C(F)(F)F)cc2F)CC1` [Compound 23, 6-fluoro-3-[5-(4-fluoro-benzyl)-[1,2,4]oxadiazol-3-yl]-1-(2-fluoro-4-trifluoromethyl-benzyl)-7-(4-methyl-piperazin-1-yl)-1H-quinolin-4-one], for which the half-inhibitory concentration (IC50) is less than 2 µM.

With `C[C@@H]1CN(c2cc3c(cc2F)c(=O)c(-c2noc(C(C)(C)c4ccccc4)n2)cn3Cc2ccc(C(F)(F)F)cc2)C[C@H](C)N1` [Compound 131, 7-((3S,5R)-3,5-dimethylpiperazin-1-yl)-6-fluoro-3-(5-(2-phenylpropan-2-yl)-1,2,4-oxadiazol-3-yl)-1-(4-(trifluoromethyl)benzyl)quinolin-4(1H)-one], the IC50 was less than 0.5 µM.

Take `CN1CCN(c2cc3c(cc2F)c(=O)c(-c2noc(Cc4ccccc4)n2)cn3Cc2c(F)cccc2F)CC1` [Compound 48, 3-(5-benzyl-[1,2,4]oxadiazol-3-yl)-1-(2,6-difluoro-benzyl)-6-fluoro-7-(4-methyl-piperazin-1-yl)-1H-quinolin-4-one]: the IC50 was less than 10 µM.

Turning to `CN1CCN(c2cc3c(cc2F)c(=O)c(-c2noc(C(C)(C)c4ccccc4)n2)cn3Cc2cccc(C(F)(F)F)c2)CC1` [Compound 98, 6-fluoro-3-[5-(1-methyl-1-phenyl-ethyl)-[1,2,4]oxadiazol-3-yl]-7-(4-methyl-piperazin-1-yl)-1-(3-trifluoromethyl-benzyl)-1H-quinolin-4-one], the IC50 is less than 0.5 µM.

As to `COc1cc2c(=O)c(-c3noc(Cc4ccsc4)n3)cn(Cc3ccc(Cl)cc3)c2cc1OC` [Compound 6, 1-(4-chloro-benzyl)-6,7-dimethoxy-3-(5-thiophen-3-ylmethyl-[1,2,4]oxadiazol-3-yl)-1H-quinolin-4-one], the concentration for half-maximal inhibition (IC50) was less than 10 µM.

Take `COc1cc2c(=O)c(-c3noc(Cc4ccccn4)n3)cn(Cc3ccc(Cl)cc3)c2cc1OC` [Compound 3, 1-(4-chloro-benzyl)-6,7-dimethoxy-3-(5-pyridin-2-ylmethyl-[1,2,4]oxadiazol-3-yl)-1H-quinolin-4-one]: the concentration for half-maximal inhibition (IC50) was greater than 10 µM.

Turning to `CC(C)(c1ccc(F)cc1)c1nc(-c2cn(Cc3ccc(F)cc3)c3cc(F)c(F)cc3c2=O)no1` [Compound 155, 6,7-difluoro-1-(4-fluorobenzyl)-3-(5-(2-(4-fluorophenyl)propan-2-yl)-1,2,4-oxadiazol-3-yl)quinolin-4(1H)-one], the IC50 was greater than 10 µM.

Regarding `O=c1c(-c2noc(Cc3ccc(Cl)cc3)n2)cn(Cc2ccc(C(F)(F)F)cc2F)c2c1CNCC2` [Compound 178, 3-[5-(4-chloro-benzyl)-[1,2,4]oxadiazol-3-yl]-1-(2-fluoro-4-trifluoromethyl-benzyl)-5,6,7,8-tetrahydro-1H-[1,6]naphthyridin-4-one], the half-maximal inhibitory concentration (IC50) is less than 10 µM.

As for `CC(C)(c1ccccc1)c1noc(-c2cn(Cc3ccc(C(F)(F)F)cc3)c3cc(N4CCOCC4)c(F)cc3c2=O)n1` [Compound 171, 6-fluoro-7-morpholino-3-(3-(2-phenylpropan-2-yl)-1,2,4-oxadiazol-5-yl)-1-(4-(trifluoromethyl)benzyl)quinolin-4(1H)-one], the IC50 was greater than 10 µM.

In the case of `CC(C)(c1ccccc1)c1nc(-c2cn(Cc3ccc(C(F)(F)F)cc3)c3cc(N4CC[S+]([O-])CC4)c(F)cc3c2=O)no1` [Compound 129], the IC50 is less than 0.5 µM.

For the molecule `CN1CCN(c2cc3c(cc2F)c(=O)c(-c2noc(Cc4ccc(F)cc4)n2)cn3Cc2ccc(Cl)cc2F)CC1` [Compound 34, 1-(4-chloro-2-fluoro-benzyl)-6-fluoro-3-[5-(4-fluoro-benzyl)-[1,2,4]oxadiazol-3-yl]-7-(4-methyl-piperazin-1-yl)-1H-quinolin-4-one], the half-maximal inhibitory concentration (IC50) was less than 2 µM.

On to `CC(C)(c1ccc(F)cc1)c1nc(-c2cn(Cc3ccc(F)cc3)c3ccccc3c2=O)no1` [Compound 156, 1-(4-fluorobenzyl)-3-(5-(2-(4-fluorophenyl)propan-2-yl)-1,2,4-oxadiazol-3-yl)quinolin-4(1H)-one], for which the half-maximal inhibitory concentration (IC50) was greater than 10 µM.

In the case of `COc1cc2c(=O)c(-c3nc(Cc4ccccc4)no3)cn(CC3CCCCC3)c2cc1OC` [Compound 170, 3-(3-benzyl-[1,2,4]oxadiazol-5-yl)-1-cyclohexylmethyl-6,7-dimethoxy-1H-quinolin-4-one], the IC50 is greater than 10 µM.

Turning to `COc1cc2c(=O)c(-c3nc(Cc4ccccc4)no3)cn(Cc3ccc(Cl)cc3)c2cc1OC` [Compound 169, 3-(3-benzyl-[1,2,4]oxadiazol-5-yl)-1-(4-chloro-benzyl)-6,7-dimethoxy-1H-quinolin-4-one], the IC50 was greater than 10 µM.

For `NC(=O)CNc1cc2c(cc1F)c(=O)c(-c1noc(Cc3ccccc3)n1)cn2Cc1ccc(C(F)(F)F)cc1F` [Compound 69, 2-[3-(5-benzyl-[1,2,4]oxadiazol-3-yl)-6-fluoro-1-(2-fluoro-4-trifluoromethyl-benzyl)-4-oxo-1,4-dihydro-quinolin-7-ylamino]-acetamide], the IC50 is less than 10 µM.

The same assay, now with this note: either or both HCV replicon assays: Huh7/Clone A, 48 hours, 72 hours, Luc activity or RT-PCR, read-out: inhibit HCV replication at IC50 levels or estimated IC50 levels.
`CN1CCN(c2cc3c(cc2F)c(=O)c(-c2noc(Cc4ccccc4)n2)cn3Cc2ccc(C(F)(F)F)cc2F)CC1` [Compound 16, 3-(5-benzyl-[1,2,4]oxadiazol-3-yl)-6-fluoro-1-(2-fluoro-4-trifluoromethyl-benzyl)-7-(4-methyl-piperazin-1-yl)-1H-quinolin-4-one]: the IC50 was less than 0.5 µM.
